Columns and labels:
[1] = system: platelet aggregation in platelet-rich plasma (PRP); experiment: Platelet aggregation inhibiting effect (ADP-induced aggregation in platelet-rich plasma); type: cell-based, human (healthy man); conditions: Homo sapiens, PRP of a healthy person, ADP final concentration 3 μg/ml, 37° C., read-out: IC50 (concentration needed to inhibit the platelet aggregation by 50%)
Description: Blood was collected from the elbow vein of a healthy person, to which was added 3.8% sodium citrate of 1/10 times by volume the blood. This was centrifuged at 1000 rpm (150 g) for 10 minutes, and the resulting supernatant of a platelet-rich plasma (PRP) was collected. 2 μl of a solution of a test compound was added to 200 μl of the PRP and kept at 37° C. for 2 minutes while stirring at 1000 rpm. Then, 22 μl of a platelet aggregation promoter of ADP (adenosine diphosphate, final concentration: 3 μg/ml) was added. The degree of platelet aggregation of the sample was measured by colorimetry, using a hematracer (ex Niko Bioscience Co.). The platelet aggregation inhibiting activity of the test compound was represented by IC50, which indicates the concentration of the compound that was needed to inhibit the platelet aggregation by 50%.

[2] = system: Fibronectin; experiment: Bonding of platelets to fibronectin; type: binding; conditions: activated, paraformaldehyde-fixed platelets; plate coated with fibronectin 5 μg/ml; 37° C. 2 hours; read-out: IC50, inhibition of bonding of platelets to Fibronectin
Description: (§1) 50 ng/ml of PGI2 was added to the PRP sample and subjected to centrifugation at 11000 rpm for 2 minutes, by which the platelets were precipitated. The platelet precipitate was washed with 3.8 mM Hepes buffer (pH 7.4, Tyrode-Hepes buffer) containing 0.14 M NaCl, 2.7 mM KCl, 3.7 mM NaH2 PO4, 0.98 mM MgCl2, 1 mg/ml of glucose, 50 ng/ml of PGI2 and 0.35% BSA. 5 μM epinephrine and 30 μM ADP were added in this order and left at room temperature for 5 minutes, by which the platelets were activated. These were then transferred into a 0.05% paraformaldehyde solution and left at room temperature for 30 minutes, whereby the platelets were fixed in the solution. The thus-fixed platelets were suspended in the Hepes buffer at a concentration of 2×10^8 ml^-1.
(§2) Fibrinogen (ex Kabi Co.), fibronectin (ex Sigma Co.) or collagen (ex Horm Co.) was diluted with 0.1 M NaHCO3 to have a concentration of 5 μg/ml, put into each well of a 96-well microplate (ex Nunc Co.) at 200 μl/well and left at 4° C. overnight. Then, the plate was washed with a phosphate buffered saline (PBS) and blocked with 3% BSA at 37° C. for 1 hour. To the plate were added the platelet suspension (final concentration: 10^8 ml^-1) and a varying concentration of a test compound (total amount: 200 μl/well), and the plate was kept at 37° C. for 2 hours. Then, this was washed with PBS, and 2 μg/ml of an anti-CD9 monoclonal antibody was added and kept at 37° C. for 60 minutes. Next, this was treated with a 1/1000 dilution of an enzyme (HRP)-labeled anti-mouse IgG polyclonal antibody at 37 °C. for 60 minutes, and 100 μl/well of an HRP-coloration substrate (0.1 M phosphate buffer with pH 5, containing 0.4 mg/ml of o-phenylenediamine, 0.01% H2 O2 and 0.1 M citric acid) was added and reacted at room temperature for 15 minutes. By adding 20 μl/well of 4.5 M H2 SO4, the reaction was stopped. Then, the absorbance of the thus-reacted sample at 490 nm was measured. […]

[3] = target: T1, Fibrinogen (Homo sapiens, UniProt P05106+P08514); experiment: Bonding of platelets to fibrinogen; type: binding; conditions: activated, paraformaldehyde-fixed platelets; plate coated with fibrinogen 5 μg/ml; 37° C. 2 hours; read-out: IC50, inhibition of bonding of platelets to Fibrinogen
T1 construct: endogenous in cells
Description: as §1, §2

[4] = system: Collagen; experiment: Bonding of platelets to collagen; type: binding; conditions: activated, paraformaldehyde-fixed platelets; plate coated with collagen 5 μg/ml; 37° C. 2 hours; read-out: IC50, inhibition of bonding of platelets to Collagen
Description: as §1, §2

T1 sequence (P08514 32-887 limits assumed): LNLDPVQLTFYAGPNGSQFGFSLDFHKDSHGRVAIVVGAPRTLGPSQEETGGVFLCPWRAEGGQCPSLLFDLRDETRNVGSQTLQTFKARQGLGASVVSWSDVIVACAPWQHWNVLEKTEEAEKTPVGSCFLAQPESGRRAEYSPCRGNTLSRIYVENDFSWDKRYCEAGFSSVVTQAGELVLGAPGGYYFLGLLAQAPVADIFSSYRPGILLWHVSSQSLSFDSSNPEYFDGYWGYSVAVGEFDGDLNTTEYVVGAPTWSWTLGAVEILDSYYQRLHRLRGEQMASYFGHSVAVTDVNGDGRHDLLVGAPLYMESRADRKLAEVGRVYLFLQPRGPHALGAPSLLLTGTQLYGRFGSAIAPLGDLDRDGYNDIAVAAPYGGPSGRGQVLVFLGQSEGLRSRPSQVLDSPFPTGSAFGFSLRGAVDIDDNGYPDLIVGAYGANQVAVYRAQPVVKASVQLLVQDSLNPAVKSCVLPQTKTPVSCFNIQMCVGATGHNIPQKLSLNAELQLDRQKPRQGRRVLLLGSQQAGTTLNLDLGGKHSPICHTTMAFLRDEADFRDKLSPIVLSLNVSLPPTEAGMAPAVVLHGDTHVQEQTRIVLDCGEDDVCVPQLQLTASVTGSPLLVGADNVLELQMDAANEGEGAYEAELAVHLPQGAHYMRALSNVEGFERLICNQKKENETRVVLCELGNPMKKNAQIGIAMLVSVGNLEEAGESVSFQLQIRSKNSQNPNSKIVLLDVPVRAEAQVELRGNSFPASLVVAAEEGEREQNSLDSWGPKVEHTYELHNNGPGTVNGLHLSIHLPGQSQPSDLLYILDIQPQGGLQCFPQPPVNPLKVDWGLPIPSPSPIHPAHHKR
T1 sequence (P08514 891-1039 limits assumed): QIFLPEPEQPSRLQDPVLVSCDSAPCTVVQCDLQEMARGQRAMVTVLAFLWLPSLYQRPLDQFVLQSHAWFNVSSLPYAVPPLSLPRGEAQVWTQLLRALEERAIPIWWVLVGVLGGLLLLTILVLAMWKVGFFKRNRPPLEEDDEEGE
T1 sequence (P05106 27-788): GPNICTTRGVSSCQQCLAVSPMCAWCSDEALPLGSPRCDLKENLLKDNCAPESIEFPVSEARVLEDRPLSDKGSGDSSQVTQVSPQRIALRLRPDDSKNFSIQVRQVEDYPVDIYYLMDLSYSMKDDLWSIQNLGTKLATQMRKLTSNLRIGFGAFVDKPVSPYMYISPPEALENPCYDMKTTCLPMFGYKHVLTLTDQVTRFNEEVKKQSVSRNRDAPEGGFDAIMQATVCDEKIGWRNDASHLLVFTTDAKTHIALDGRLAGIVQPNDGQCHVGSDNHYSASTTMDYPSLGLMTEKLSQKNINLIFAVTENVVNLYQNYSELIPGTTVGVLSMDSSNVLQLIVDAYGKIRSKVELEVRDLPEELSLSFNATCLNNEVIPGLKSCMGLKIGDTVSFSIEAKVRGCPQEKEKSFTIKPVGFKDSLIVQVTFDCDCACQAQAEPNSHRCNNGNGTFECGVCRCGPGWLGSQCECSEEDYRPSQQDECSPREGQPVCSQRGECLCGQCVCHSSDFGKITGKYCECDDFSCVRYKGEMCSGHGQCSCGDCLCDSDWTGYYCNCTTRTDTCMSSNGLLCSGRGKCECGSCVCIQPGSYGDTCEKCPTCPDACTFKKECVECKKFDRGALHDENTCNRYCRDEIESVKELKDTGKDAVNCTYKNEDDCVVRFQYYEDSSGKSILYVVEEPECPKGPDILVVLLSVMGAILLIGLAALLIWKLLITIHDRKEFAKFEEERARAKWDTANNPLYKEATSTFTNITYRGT

## O=C(O)COC1CCN(C(=O)[C@H](CO)NC(=O)CCC2CCNCC2)CC1 [Compound (29), (1-(N-(3-(4-piperidyl)propanoyl)-L-seryl)-4-piperidyloxy)acetic acid]
[1]
  IC50: 0.886 µM

## O=C(O)CCC1CCN(C(=O)[C@H](Cc2ccc(O)cc2)NC(=O)COC2CCNCC2)CC1 [Compound (44), 3-(1-(N-(4-piperidyloxyacetyl)-L-tyrosyl)-4-piperidyl)propanoic acid]
[1]
  IC50: 0.63 µM

## O=C(O)COC1CCN(C(=O)CNC(=O)CCC2CCNCC2)CC1 [Compound (24)]
[1]
  IC50: 2.38 µM

## COc1ccc(C[C@H](NC(=O)CCC2CCNCC2)C(=O)N2CCC(OCC(=O)O)CC2)cc1 [Compound (12)]
[2]
  IC50: 67 µM
[3]
  IC50: 0.45 µM
[4]
  IC50: > 100 µM
[1]
  IC50: 0.06 µM

## C[C@H](NC(=O)CCC1CCNCC1)C(=O)N1CCC(OCC(=O)O)CC1 [Compound (23), (1-(N-(3-(4-piperidyl)propanoyl)-L-alanyl)-4-piperidyloxy)acetic acid]
[1]
  IC50: 0.389 µM

## COc1ccc(C[C@H](NC(=O)CCCC2CCNCC2)C(=O)N2CCC(OCC(=O)O)CC2)cc1 [Compound (18), (1-(N-(4-(4-piperidyl)butanoyl)-O-methyl-L-tyrosyl)-4-piperidyloxy)acetic acid]
[2]
  IC50: 7.2 µM
[3]
  IC50: 63 µM
[4]
  IC50: > 100 µM
[1]
  IC50: 0.68 µM

## O=C(O)COC1CCN(C(=O)[C@H](Cc2c[nH]c3ccccc23)NC(=O)CCC2CCNCC2)CC1 [Compound (28), (1-(N-(3-(4-piperidyl)propanoyl)-L-tryptophyl)-4-piperidyloxy)acetic acid]
[1]
  IC50: 0.438 µM

## O=C(O)CCC1CCN(C(=O)[C@H](Cc2ccc(O)cc2)NC(=O)CCC2CCNCC2)CC1 [Compound (42), 3-(1-(N-(3-(4-piperidyl)propanoyl)-L-tyrosyl)-4-piperidyl)propanoic acid]
[1]
  IC50: 1.73 µM

## CC[C@H](C)[C@H](NC(=O)CCC1CCNCC1)C(=O)N1CCC(OCC(=O)O)CC1 [Compound (27), (1-(N-(3-(4-piperidyl)propanoyl)-L-isoleucyl)-4-piperidyloxy)acetic acid]
[1]
  IC50: 0.507 µM

## CC(C)C[C@H](NC(=O)CCC1CCNCC1)C(=O)N1CCC(OCC(=O)O)CC1 [Compound (26), (1-(N-(3-(4-piperidyl)propanoyl)-L-leucyl)-4-piperidyloxy)acetic acid]
[1]
  IC50: 0.929 µM

## COc1ccc(C[C@H](NC(=O)CCC2CCNCC2)C(=O)N2CCC(CCC(=O)O)CC2)cc1 [Compound (35), 3-(1-(N-(3-(4-piperidyl)propanoyl)-O-methyl-L-tyrosyl)-4-piperidyl)propanoic acid]
[1]
  IC50: 0.712 µM

## O=C(O)COC1CCN(C(=O)[C@H](Cc2ccc(O)cc2)NC(=O)CCC2CCNCC2)CC1 [Compound (20), (1-(N-(3-(4-piperidyl)propanoyl)-L-tyrosyl)-4piperidyloxy)acetic acid]
[1]
  IC50: 0.135 µM

## O=C(O)COC1CCN(C(=O)[C@H](Cc2ccccc2)NC(=O)CCC2CCNCC2)CC1 [Compound (21), (1-(N-(3-(4-piperidyl)propanoyl)-L-phenylalanyl)-4-piperidyloxy)acetic acid]
[1]
  IC50: 0.917 µM

## COc1ccc(C[C@H](NC(=O)COC2CCNCC2)C(=O)N2CCC(CCC(=O)O)CC2)cc1 [Compound (37)]
[1]
  IC50: 0.117 µM

## CC(C)[C@H](NC(=O)CCC1CCNCC1)C(=O)N1CCC(OCC(=O)O)CC1 [Compound (22), (1-(N-(3-(4-piperidyl)propanoyl)-L-valyl)-4-piperidyloxy)acetic acid]
[1]
  IC50: 1.1 µM

## COc1ccc(C[C@H](NC(=O)COC2CCNCC2)C(=O)N2CCC(OCC(=O)O)CC2)cc1 [Compound (15)]
[2]
  IC50: 0.24 µM
[3]
  IC50: 0.25 µM
[4]
  IC50: > 100 µM
[1]
  IC50: 0.048 µM

## O=C(O)COC1CCN(C(=O)[C@@H]2CCCN2C(=O)CCC2CCNCC2)CC1 [Compound (25), (1-(N-(3-(4-piperidyl)propanoyl)-L-prolyl)-4-piperidyloxy)acetic acid]
[1]
  IC50: 0.316 µM

## O=C(O)COC1CCN(C(=O)[C@H](Cc2ccc(O)cc2)NC(=O)COC2CCNCC2)CC1 [Compound (19), (1-(N-(4-piperidyloxyacetyl)-L-tyrosyl)-4-piperidyloxy)acetic acid]
[1]
  IC50: 0.061 µM

— US5607948A, “Dipiperidine derivatives” (Sumitomo Pharmaceuticals Co., Ltd., priority 1993, dated 1997)
